Experiments:
HCT116 cells = assay: Uptake of FITC-tagged protein, fluorescent microscopy / flow cytometry; assay type: cell-based, human
Excerpt: To determine the mechanism by which the chromoprotein enters cells and exerts its biological activity, the chromoprotein was labeled with a fluorescent tag (FITC) using EZ-Label fluorescent labeling kit (Pierce Biotechnology), according to the manufacturer's recommendation. […] Uptake of labeled material by HCT116 colon carcinoma cells was studied by fluorescent microscopy.
To determine whether an intact complex of chromophore and apoprotein is required for cellular and nuclear entry, the chromoprotein and apoprotein were labeled with FITC. Uptake of labeled material was studied by fluorescent microscopy.
To determine whether the entry of chromoprotein into cells is mediated by a saturable (e.g. cell surface receptor-dependent) process, HCT116 cells were incubated with FITC-labeled chromoprotein (FIG. 28, right panel) or apoprotein (FIG. 28, left panel) in the absence or presence of 10-fold excess of unlabeled reagent (unlabelled chromoprotein or apoprotein, respectively). Cells were analysed by fluorescent microscopy (left) or flow cytometry (right). […] Numbers in the histograms are mean channel numbers (FITC fluorescence).
Other means by which a protein complex can enter cells is pinocytosis, where caveolae in the surface of the cell pinch off to form pinosomes that are free within the cytoplasm of the cell. Since pinocytosis is an energy-dependent process that requires a functional tubulin cytoskeletal network, we examined the effect of sodium azide, an energy uncoupling agent and nocodazole, an agent which disrupts the tubulin cytoskeleton on cellular uptake. HCT116 cells were treated with FITC-labeled apoprotein in the absence or presence of sodium azide or nocodazole.

histone H1 in HeLa cells = assay: Digestion of histone H1 in HeLa cells, immunoblot; assay type: cell-based; details: overnight at 37° C., anti-histone H1 immunoblot
Experimental: To study whether the digestion of histones by the chromoprotein occurs in intact cells, HeLa cells were incubated with compounds overnight at 37° C. Cell lysates were analysed by SDS-PAGE and protein immunoblotting using anti-histone H1 antibodies (Santa Cruz Biotechnologies). […] This activity can contribute to antitumor effects by digesting histones in chromatin, making the DNA more accessible for cleavage. This appears to be a unique activity of the chromoprotein enediynes.

Histone H1 = assay: Digestion of histone H1, SDS-PAGE; assay type: biochemical; details: 50 mM Tris-Cl, pH 7.5 overnight at 37° C.
Experimental: Histone H1 was incubated with various concentrations of the chromoprotein in 50 mM Tris-Cl, pH 7.5 overnight at 37° C. (FIG. 20) Digestions of histone were assessed by SDS-polyacrylamide gel electrophoresis (SDS-PAGE), followed by staining of the gel with GelCode Blue (Pierce Biotechnology, Inc, Rockford, Ill.).

KB = assay: IC50 against P-GP expressing cells: KB; assay type: cell-based; details: P-GP level −, mean of two independent experiments
Excerpt: (§1) Human PGP (MDR1) is an ATP-dependent efflux pump which is capable of transporting many drugs across cell membranes. High level expression of this protein has been linked to multiple drug resistance of tumors. […] The protein component of the chromoprotein probably protects the chromophore from drug efflux mediated by MDR1, and may be responsible for the beneficial antitumor effects in colon cell lines which often express MDR1.

KB-8-5 = assay: IC50 against P-GP expressing cells: KB-8-5; assay type: cell-based; details: KB-8-5, P-GP level +; mean of two independent experiments
Excerpt: as §1

KB-V-1 = assay: IC50 against P-GP expressing cells: KB-V-1; assay type: cell-based; details: KB-V-1, P-GP level +++; mean of two independent experiments
Excerpt: as §1

Human PGP (MDR1) = molecular target: T1, Human PGP (MDR1) (Homo sapiens, UniProt P08183); assay: Transport by P-GP (MDR-1); assay type: cell-based; details: judged from IC50 in KB, KB-8-5, KB-V-1 cells
T1 construct: endogenous in cells; parental KB is P-GP negative
Excerpt: as §1

[1] = test system: human tumor cell line panel; assay: In vitro anti-tumor activity, human tumor cell line panel; assay type: cell-based; details: apoprotein alone

T1 sequence (P08183 whole entry): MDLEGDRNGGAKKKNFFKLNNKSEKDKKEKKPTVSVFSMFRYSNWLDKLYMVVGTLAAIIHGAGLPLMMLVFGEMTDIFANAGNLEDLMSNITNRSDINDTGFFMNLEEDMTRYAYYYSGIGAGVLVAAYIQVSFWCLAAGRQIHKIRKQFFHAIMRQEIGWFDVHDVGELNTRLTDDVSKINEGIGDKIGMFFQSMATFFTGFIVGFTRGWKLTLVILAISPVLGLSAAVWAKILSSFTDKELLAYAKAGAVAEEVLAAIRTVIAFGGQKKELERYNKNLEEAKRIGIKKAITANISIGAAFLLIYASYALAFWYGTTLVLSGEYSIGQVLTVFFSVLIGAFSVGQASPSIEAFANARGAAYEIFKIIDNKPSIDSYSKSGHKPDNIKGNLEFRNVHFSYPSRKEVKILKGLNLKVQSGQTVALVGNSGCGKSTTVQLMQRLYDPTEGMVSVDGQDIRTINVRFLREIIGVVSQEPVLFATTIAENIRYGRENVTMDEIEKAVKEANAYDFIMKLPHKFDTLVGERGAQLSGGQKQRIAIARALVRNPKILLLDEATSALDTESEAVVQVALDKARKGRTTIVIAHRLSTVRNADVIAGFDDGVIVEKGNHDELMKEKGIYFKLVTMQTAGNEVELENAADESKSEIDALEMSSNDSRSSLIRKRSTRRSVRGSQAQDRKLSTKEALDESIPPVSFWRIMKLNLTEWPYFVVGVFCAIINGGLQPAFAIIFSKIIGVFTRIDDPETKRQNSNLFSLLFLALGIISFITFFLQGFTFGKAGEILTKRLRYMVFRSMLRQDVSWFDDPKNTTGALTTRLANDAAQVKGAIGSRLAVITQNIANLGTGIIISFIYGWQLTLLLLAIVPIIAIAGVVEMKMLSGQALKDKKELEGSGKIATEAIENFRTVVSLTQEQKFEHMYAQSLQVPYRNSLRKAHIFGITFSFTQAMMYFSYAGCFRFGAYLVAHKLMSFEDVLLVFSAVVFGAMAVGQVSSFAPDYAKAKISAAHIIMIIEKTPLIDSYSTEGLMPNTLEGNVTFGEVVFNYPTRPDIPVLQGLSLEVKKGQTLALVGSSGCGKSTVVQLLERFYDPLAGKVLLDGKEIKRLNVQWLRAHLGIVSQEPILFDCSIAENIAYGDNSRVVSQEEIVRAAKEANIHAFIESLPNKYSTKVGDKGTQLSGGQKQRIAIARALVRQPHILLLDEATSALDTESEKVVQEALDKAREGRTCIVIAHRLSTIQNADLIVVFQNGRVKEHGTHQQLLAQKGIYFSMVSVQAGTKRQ

Molecule: COC(=O)Nc1nc2ccc(C(=O)c3cccs3)cc2[nH]1 [nocodazole, reference compound]
- effect on uptake of FITC-labeled apoprotein (HCT116 cells; HCT116 cells): inhibited uptake of label

Molecule: bleomycin
- histone H1 in cells after incubation (histone H1 in HeLa cells): No effect

Molecule: calicheamicin [reference compound]
- digestion of histone H1 (Histone H1): did not cleave histone H1
- histone H1 in cells after incubation (histone H1 in HeLa cells): No effect
- IC50 (KB): 0.003 µg/mL
- IC50 (KB-8-5): 0.021 µg/mL
- IC50 (KB-V-1): >1 µg/mL
- MDR1 substrate (Human PGP (MDR1)): good substrate for MDR1

B1: apoprotein: protein component of the 21G792 chromoprotein without chromophore, SEQ ID NO:150, 12.92409 kDa by MALDI-MS (protein)
chain: DTVTVNYDCVGYPSDIAVTIDAPATAGVGDTATFEVSSVVTTGAPQDLPAGEVVTDMAIVVGGAQSGTITASGLTNEATPAGQPVNMVGGEAQITFTSAGSVTFTPSTTTQVDNGAQCTVVGEAPVGATTVVS
modifications: Actinomadura sp. 21G792
- in vitro anti-tumor activity [1]: inactive
- digestion of histone H1 (Histone H1): no activity
- uptake, apoprotein compared with chromoprotein (HCT116 cells; FITC-labeled): similar
- competition of uptake by 10-fold excess of unlabeled reagent (HCT116 cells; FITC-labeled, microscopy or flow cytometry): No competition of label
